Source: paper PMC8399565, “Fluorescence Cross-Correlation Spectroscopy Yields True Affinity and Binding Kinetics of Plasmodium Lactate Transport Inhibitors” (Pharmaceuticals, 2021)
Entries after “also recorded” stand apart in the source; their conditions may differ.

Tests used:
PfFNT = details: cited from earlier work; for IC50: PfFNT expressed in Saccharomyces cerevisiae yeast
[1] = tested on: Plasmodium falciparum 3D7 parasites; design: method as in PMID 23798988; details: in vitro; cited from earlier work
PfFNT-GFP = biological target: T1, PfFNT-GFP (Plasmodium falciparum, UniProt O77389); experiment: FCCS loss of signal screening competition assay; type: binding
T1 construct: The DNA of full-length PfFNT from Plasmodium falciparum 3D7 was cloned as a C-terminal GFP fusion; expressed in transfected cells; intact cells for imaging, LMNG-solubilized membranes or lysates for FCCS
T1 sequence (O77389 whole entry, the tested form may be a part): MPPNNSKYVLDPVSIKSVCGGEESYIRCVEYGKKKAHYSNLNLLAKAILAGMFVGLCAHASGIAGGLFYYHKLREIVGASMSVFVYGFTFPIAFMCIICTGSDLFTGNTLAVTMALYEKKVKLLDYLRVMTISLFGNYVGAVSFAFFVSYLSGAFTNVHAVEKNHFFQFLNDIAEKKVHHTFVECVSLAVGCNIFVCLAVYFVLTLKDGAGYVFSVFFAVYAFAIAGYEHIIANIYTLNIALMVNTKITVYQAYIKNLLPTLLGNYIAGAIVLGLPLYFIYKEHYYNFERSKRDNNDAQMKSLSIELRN
Description: With a loss of signal screening assay using the GFP fusion of PfFNT wildtype and BH296-DY647 as the interaction pair, we set out to test the FCCS approach on a selection of 26 compounds that were validated before using functional lactate transport assays in yeast. In more detail, HEK cell lysates were adjusted to a PfFNT-GFP concentration of 4 nM and mixed with fluorescence-labeled BH296-DY647 at a final concentration of 80 nM, approximating the previously determined KD-value of this interaction. A total of 20 µL of the mix was then dispensed into the wells of a glass-bottom 384 microtiter plate. […] The wells were then analyzed by FCCS, Ki values were determined, and compared by a scatter plot to the IC50 values from the previous functional assays in yeast (Figure 6). […]
FCCS measurements were conducted in 384-well glass-bottom plates (cat. no PS96B-G175, SWISSCI, Switzerland) using an Insight plate reader (Evotec Technologies, Germany) fitted with a U-Apo300 40x water immersion lens, NA 1.15 (Olympus, Japan). […] Fluorescence fluctuations were recorded for 8 s with 12 repetitions and analyzed afterward using FCS+plus Analyze 1.1P (Evotec technologies, Version 1.2.5g). […] All KD and IC50 values, as well as kinetic parameters, were determined from three independently repeated experiments. […]

PfFNT G107S = tested on: PfFNT G107S; design: method as in PMID 23798988; details: PfFNT G107S point mutation; cited from earlier work
[2] = tested on: resistant parasites that carried a single PfFNT G107S point mutation; design: method as in PMID 23798988; details: cited from earlier work

SMILES	IC50 (PfFNT) [nM]	EC50 [1] [nM]	activity in functional yeast lactate transport assay (PfFNT; validated before)	Ki (PfFNT-GFP) [nM]	Ki (affinity) from FCCS competition screen (PfFNT-GFP; 4 nM PfFNT-GFP, 80 nM BH296-DY647, 1 h room temperature)	IC50 (PfFNT G107S) [nM]	EC50 [2] [nM]
O=C1CC(O)(C(F)(F)C(F)(F)F)Oc2ccccc21 (stereo not drawn) [MMV000972, reference compound]	170	1700					
O=C(/C=C(\O)C(F)(F)C(F)(F)F)c1ccc(C(=O)/C=C(\O)C(F)(F)C(F)(F)F)cc1 [BH454]			little activity; also recorded: not very effective	< 100	double-digit nanomolar range		
COc1ccc2c(c1)OC(O)(C(F)(F)C(F)(F)F)CC2=O (stereo not drawn) [MMV007839]	170	140				21000	35000
